Data from BindingDB's records for doi:10.1021/jm050859x (Amgen, 2006).

These compounds were tested against RNA-directed RNA polymerase (Hepacivirus hominis, UniProt Q8JXU8) (assay: Inhibitory activity against HCV delta 21 NS5b RNA polymerase).
Sequence of RNA-directed RNA polymerase (Q8JXU8 whole entry): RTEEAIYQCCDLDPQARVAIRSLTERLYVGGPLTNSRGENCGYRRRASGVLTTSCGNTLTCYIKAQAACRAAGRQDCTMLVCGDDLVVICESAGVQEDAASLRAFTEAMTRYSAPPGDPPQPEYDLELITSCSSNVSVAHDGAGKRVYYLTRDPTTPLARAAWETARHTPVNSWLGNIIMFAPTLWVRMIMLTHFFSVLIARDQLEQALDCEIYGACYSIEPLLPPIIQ

| SMILES | IC50 [µM] |
| --- | --- |
| O=S(=O)(Nn1c(O)c(Cc2ccc(Cl)c(Cl)c2)sc1=S)c1ccccc1 [5-(3,4-dichlorobenzyl)-3-(benzenesulfonylamino)-4-oxo-2-thionothiazolidine] | 11 |
| C=C(c1ccc(Cl)c(Cl)c1)c1sc(=S)n(NS(=O)(=O)c2ccccc2)c1O [5-(3,4-dichlorophenyl-1-ethylene)-3-(benzenesulfonylamino)-4-oxo-2-thionothiazolidine] | 0.6 |
| O=C1C(=Cc2ccc(-c3cc(C(F)(F)F)ccc3Cl)o2)SC(=S)N1NS(=O)(=O)c1ccccc1 [5-(5-[2-chloro-5-(trifluoromethyl)phenyl]-furan-2-methylene)-3-(benzenesulfonylamino)-4-oxo-2-thionothiazolidine] | 0.1 |
| O=C1N=C(S)SC1=Cc1ccc(Cl)cc1 [5-(4-chlorobenzylidene)-2-thioxothiazolidin-4-one] | > 30 |
| O=C(NN1C(=O)C(=Cc2ccc(Cl)cc2)SC1=S)c1ccccc1 [5-(4-chlorobenzylidene)-3-(benzoylamino)-4-oxo-2-thionothiazolidine] | > 30 |
